In the supplement of paper PMC10307832:

Tests used:
Test in all cases: relative viability (nuclei count vs DMSO), 5 days (fraction); higher = more cells survive
[1] = system: BEN
Method in brief: (§1)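 After 5 days of treatment, lung cancer cells in 1536-well plates were fixed and stained in a single step (final 0.05% Triton X-100, 1% formaldehyde, 1 ug/ml Hoechst) and their nuclei counted on 4× images. Treatment had been applied by pin tool the day after seeding as one drug alone or as a fixed anchor-drug dose with five library-drug doses (not always all listed) in √10 steps. Relative viability is the nuclei count of treated wells divided by that of vehicle wells, and values are medians of duplicate plates.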

[2] = system: EMC-BAC-2
Method in brief: as §1

[3] = system: H3255
Method in brief: as §1

[4] = system: HOP-62
Method in brief: as §1

[5] = system: LCLC-97TM1
Method in brief: as §1

[6] = system: LXF-289
Method in brief: as §1

[7] = system: NCI-H1563
Method in brief: as §1

[8] = system: NCI-H1915
Method in brief: as §1

[9] = system: NCI-H1993
Method in brief: as §1

[10] = system: NCI-H2009
Method in brief: as §1

[11] = system: NCI-H2023
Method in brief: as §1

[12] = system: NCI-H2085
Method in brief: as §1

[13] = system: NCI-H2126
Method in brief: as §1

[14] = system: NCI-H2347
Method in brief: as §1

[15] = system: NCI-H322M
Method in brief: as §1

[16] = system: NCI-H358
Method in brief: as §1

[17] = system: NCI-H647
Method in brief: as §1

[18] = system: NCI-H661
Method in brief: as §1

[19] = system: NCI-H727
Method in brief: as §1

[20] = system: PC-14
Method in brief: as §1

[21] = system: SK-LU-1
Method in brief: as §1

[22] = system: SW 1573
Method in brief: as §1

Q: How did the relative viability ([1]; first compound 0.04 µM) turn out when `C[C@@H]1CN(CC(=O)Nc2ccc3c(c2)Cc2cccc(-c4cc(=O)cc(N5CCOCC5)o4)c2S3)C[C@H](C)O1` + Cc1nc(NC(=O)N2CCC[C@H]2C(N)=O)sc1-c1ccnc(C(C)(C)C(F)(F)F)c1 [Alpelisib] (partner 2 µM) was run?
A: 1

Q: What about the relative viability ([1]; first compound 0.1265 µM) of the same compound?
A: 0.968

Q: And the relative viability ([1]; first compound 0.4 µM)?
A: 1.03

Q: And the relative viability ([1]; first compound 4 µM)?
A: 1.04

Q: And the relative viability ([2]; first compound 0.04 µM)?
A: 0.748

Q: What about the relative viability ([2]; first compound 0.1265 µM) of the same compound?
A: 0.771

Q: And the relative viability ([2]; first compound 0.4 µM)?
A: 0.726

Q: What about the relative viability ([2]; first compound 4 µM) of the same compound?
A: 0.73

Q: And the relative viability ([3]; first compound 0.04 µM)?
A: 0.569

Q: And the relative viability ([3]; first compound 0.1265 µM)?
A: 0.659

Q: And the relative viability ([3]; first compound 0.4 µM)?
A: 0.549

Q: And the relative viability ([3]; first compound 4 µM)?
A: 0.611

Q: What about the relative viability ([4]; first compound 0.04 µM) of the same compound?
A: 1.08

Q: What about the relative viability ([4]; first compound 0.1265 µM) of the same compound?
A: 1.05

Q: And the relative viability ([4]; first compound 0.4 µM)?
A: 0.939

Q: What about the relative viability ([4]; first compound 4 µM) of the same compound?
A: 1.07

Q: What about the relative viability ([5]; first compound 0.1265 µM) of the same compound?
A: 0.225

Q: And the relative viability ([5]; first compound 0.4 µM)?
A: 0.237

Q: What about the relative viability ([5]; first compound 4 µM) of the same compound?
A: 0.238

Q: And the relative viability ([6]; first compound 0.04 µM)?
A: 1.04

Q: What about the relative viability ([6]; first compound 0.1265 µM) of the same compound?
A: 1

Q: And the relative viability ([6]; first compound 0.4 µM)?
A: 0.996

Q: And the relative viability ([6]; first compound 4 µM)?
A: 1.02

Q: And the relative viability ([7]; first compound 0.04 µM)?
A: 0.942

Q: What about the relative viability ([7]; first compound 0.1265 µM) of the same compound?
A: 0.918

Q: And the relative viability ([7]; first compound 0.4 µM)?
A: 0.748

Q: What about the relative viability ([7]; first compound 4 µM) of the same compound?
A: 0.753

Q: What about the relative viability ([8]; first compound 0.04 µM) of the same compound?
A: 1.02

Q: And the relative viability ([8]; first compound 0.1265 µM)?
A: 1.08

Q: What about the relative viability ([8]; first compound 0.4 µM) of the same compound?
A: 1.1

Q: And the relative viability ([8]; first compound 4 µM)?
A: 1.04

Q: What about the relative viability ([9]; first compound 0.04 µM) of the same compound?
A: 0.641

Q: And the relative viability ([9]; first compound 0.1265 µM)?
A: 0.685

Q: And the relative viability ([9]; first compound 0.4 µM)?
A: 0.592

Q: What about the relative viability ([9]; first compound 4 µM) of the same compound?
A: 0.62

Q: What about the relative viability ([10]; first compound 0.04 µM) of the same compound?
A: 1.23

Q: What about the relative viability ([10]; first compound 0.1265 µM) of the same compound?
A: 1.09

Q: And the relative viability ([10]; first compound 0.4 µM)?
A: 1.09

Q: What about the relative viability ([10]; first compound 4 µM) of the same compound?
A: 0.974

Q: What about the relative viability ([11]; first compound 0.04 µM) of the same compound?
A: 0.69

Q: And the relative viability ([11]; first compound 0.1265 µM)?
A: 0.579

Q: And the relative viability ([11]; first compound 0.4 µM)?
A: 0.407

Q: And the relative viability ([11]; first compound 4 µM)?
A: 0.473

Q: What about the relative viability ([12]; first compound 0.04 µM) of the same compound?
A: 0.99

Q: What about the relative viability ([12]; first compound 0.1265 µM) of the same compound?
A: 0.897

Q: And the relative viability ([12]; first compound 0.4 µM)?
A: 0.793

Q: And the relative viability ([12]; first compound 4 µM)?
A: 0.7

Q: And the relative viability ([13]; first compound 0.04 µM)?
A: 0.807

Q: And the relative viability ([13]; first compound 0.1265 µM)?
A: 0.765

Q: What about the relative viability ([13]; first compound 0.4 µM) of the same compound?
A: 0.738

Q: And the relative viability ([13]; first compound 4 µM)?
A: 0.762

Q: What about the relative viability ([14]; first compound 0.04 µM) of the same compound?
A: 0.981

Q: What about the relative viability ([14]; first compound 0.1265 µM) of the same compound?
A: 1.09

Q: And the relative viability ([14]; first compound 0.4 µM)?
A: 1.08

Q: And the relative viability ([14]; first compound 4 µM)?
A: 0.979

Q: And the relative viability ([15]; first compound 0.04 µM)?
A: 0.844

Q: What about the relative viability ([15]; first compound 0.1265 µM) of the same compound?
A: 0.833

Q: What about the relative viability ([15]; first compound 0.4 µM) of the same compound?
A: 0.832

Q: What about the relative viability ([15]; first compound 4 µM) of the same compound?
A: 0.839

Q: And the relative viability ([16]; first compound 0.04 µM)?
A: 1.12

Q: And the relative viability ([16]; first compound 0.1265 µM)?
A: 0.859

Q: And the relative viability ([16]; first compound 0.4 µM)?
A: 0.73

Q: And the relative viability ([16]; first compound 4 µM)?
A: 0.491

Q: What about the relative viability ([17]; first compound 0.04 µM) of the same compound?
A: 1.26

Q: And the relative viability ([17]; first compound 0.1265 µM)?
A: 1.08

Q: And the relative viability ([17]; first compound 0.4 µM)?
A: 1.08

Q: What about the relative viability ([17]; first compound 4 µM) of the same compound?
A: 0.766

Q: And the relative viability ([18]; first compound 0.1265 µM)?
A: 0.741

Q: And the relative viability ([18]; first compound 0.4 µM)?
A: 0.526

Q: And the relative viability ([18]; first compound 4 µM)?
A: 0.489

Q: And the relative viability ([19]; first compound 0.04 µM)?
A: 0.685

Q: What about the relative viability ([19]; first compound 0.1265 µM) of the same compound?
A: 0.612

Q: And the relative viability ([19]; first compound 0.4 µM)?
A: 0.502

Q: What about the relative viability ([19]; first compound 4 µM) of the same compound?
A: 0.479

Q: And the relative viability ([20]; first compound 0.04 µM)?
A: 0.961

Q: And the relative viability ([20]; first compound 0.1265 µM)?
A: 0.986

Q: What about the relative viability ([20]; first compound 0.4 µM) of the same compound?
A: 0.9

Q: What about the relative viability ([20]; first compound 4 µM) of the same compound?
A: 0.855

Q: What about the relative viability ([21]; first compound 0.04 µM) of the same compound?
A: 1.21

Q: What about the relative viability ([21]; first compound 0.1265 µM) of the same compound?
A: 1.05

Q: What about the relative viability ([21]; first compound 0.4 µM) of the same compound?
A: 0.936

Q: What about the relative viability ([21]; first compound 4 µM) of the same compound?
A: 0.645

Q: What about the relative viability ([22]; first compound 0.04 µM) of the same compound?
A: 0.867

Q: And the relative viability ([22]; first compound 0.1265 µM)?
A: 0.852

Q: And the relative viability ([22]; first compound 0.4 µM)?
A: 0.771

Q: What about the relative viability ([22]; first compound 4 µM) of the same compound?
A: 0.753
